Data published in ChEMBL document CHEMBL4765400, “Open and rearranged norbornane derived polycyclic cage molecules as potential neuroprotective agents through attenuation of MPP- and calcium overload-induced excitotoxicity in neuroblastoma SH-SY5Y cells” (Eur J Med Chem, 2020).
Calls of active or inactive are those of the source. No cut-off for these calls is given here.

Legend:
[1] = Displacement of [3H]MK801 from NMDA receptor (unknown origin) by radioligand binding assay; parameters: species or system Homo sapiens
[2] = system: SH-SY5Y; assay: Antagonist activity at NMDA receptor in human SH-SY5Y cells assessed as inhibition of calcium influx at 10 uM by Fura-2AM dye based fluorescence analysis relative to control; type: cell-based
[3] = system: SH-SY5Y; assay: Blockade of VGCC in human SH-SY5Y cells assessed as inhibition of membrane depolarisation-induced calcium influx at 10 uM by Fura-2AM dye based fluorescence analysis relative to control; type: cell-based
[4] = Displacement of [3H]MK801 from NMDA receptor in Sprague-Dawley rat cerebral cortical membrane incubated for 60 mins by liquid scintillation counting analysis; type: cell membranes, Cerebral cortex
[5] = system: SH-SY5Y; assay: Cytotoxicity against human SH-SY5Y cells assessed as reduction in cell viability at 10 to 100 uM incubated for 24 hrs by MTT assay; type: cell-based; settings: dose 10-100 µM
[6] = Cytotoxicity against human SH-SY5Y cells assessed as cell viability at 10 uM incubated for 24 hrs by MTT assay relative to control; type: cell-based; settings: read-out: Activity
[7] = Cytotoxicity against human SH-SY5Y cells assessed as cell viability at 100 uM incubated for 24 hrs by MTT assay relative to control; type: cell-based; settings: read-out: Activity
[8] = system: SH-SY5Y; assay: Neuroprotective activity against MPP+-induced neurotoxicity in human SH-SY5Y cells assessed as cell viability at 10 uM pretreated for 2 hrs followed by MPP+ challenge and measured after 24 hrs by MTT assay relative to control; type: functional; settings: time 26 hrs, read-out: Activity
[9] = Displacement of [3H]MK801 from NMDA receptor in human brain by radioligand binding assay; type: tissue-based
[10] = Antagonist activity at NMDA receptor (unknown origin); parameters: species or system Homo sapiens

SMILES	inhibition ([2]; filed as antagonist) [%]	inhibition [3]	Activity [5]	viability at 24 h, 10 µM [6] [%]	viability at 10 µM [8] [%]	further results
c1ccc(C2(N3CCCCC3)CCCCC2)cc1 [PHENCYCLIDINE]						Ki [1]: 0.059 µM
C[C@@]12N[C@@H](Cc3ccccc31)c1ccccc12	47.5	inactive				Ki [4]: 0.0372 µM
O[C@@H]1C[C@H]2CC[C@@H]1NC2	43.5	inactive	Toxic	96.3	28.3	viability at 24 h, 100 µM [7]: 59%
COCCOC(=O)C1=C(C)NC(C)=C(C(=O)OC(C)C)C1c1cccc([N+](=O)[O-])c1 (stereo not given)		34.1%				inhibition [2]: inactive
CN[C@@]1(c2ccccc2Cl)CCCCC1=O						Ki [1]: 0.659 µM
O=C1C=C[C@H](NN2CCCCC2)[C@@H]2[C@H]1[C@H]1C=C[C@@H]2C1	65.3	8.4%	Non-Toxic	93.7	33.9	
O=C1C2C3C=CC(C3)C2C(=O)C2C3C=CC(C3)C12 (stereo not given)	62.3	50.3%	Non-Toxic	95.9	41.4	
O=C1CCC(=O)[C@H]2[C@@H]1[C@H]1C=C[C@H]2C1	51	25.4%	Toxic	96.6	40.6	
CC12CC3CC(C)(C1)CC(N)(C3)C2 [MEMANTINE]						Ki [9]: 0.54 µM
O=C1C=C[C@H](NCc2ccccc2)[C@@H]2[C@H]1[C@H]1C=C[C@@H]2C1		21.3%	Toxic	108	33.7	inhibition [2]: 26.5%
NC12CC3CC(CC(C3)C1)C2 [AMANTADINE]						Ki [10]: 10 µM
C1C2OC2[C@H]2[C@@H]1[C@H]1C[C@@H]2C2OC21 (stereo not given in full)	53.3	8.49%	Toxic	94.4	27.9	
O=C1CC[C@H]2C[C@@H]1CCC2=O	73	inactive	Non-Toxic	125	26.1	
O=C1C=CC(=O)[C@H]2[C@@H]1[C@H]1C=C[C@H]2C1	43.8	15%	Toxic	97.7	32.8	
C1=C[C@H]2CC[C@@H]1[C@H]1CNC[C@H]12	55.5	5.79%	Non-Toxic	108	27.5	
O=C1CC[C@H](O)C2C3C=C[C@@H](C3)C12 (single isomer, unassigned)	69.7	32.8%	Non-Toxic	96.3	35	
